The values below come from patent US8440617B2, “Hyperbaric treatment in wound healing” (The Trustees of the University of Pennsylvania, priority 2007, dated 2013).

“Also recorded” adds a separate entry of the source.

This assay concerns circulating EPCs (CXCR4+/VEGFR2+, Tie2+/VEGFR2+). In words: Circulating EPCs by flow cytometry in STZ-diabetic mice. The assay is classed as in vivo, mouse. The settings on record: diabetic mice treated with insulin. The protocol: Tie2-GFP, wild-type or chimeric FVB mice at 6-12 wk of age were treated with STZ (Sigma-Aldrich) to induce diabetes. Mice were rendered diabetic by i.p. administration of 60 mg/kg STZ in 50 mM sodium citrate, pH 4.5, daily for 5 d. Control mice were treated with daily injections of citrate buffer. Serum glucose was measured from the mouse tail vein using a glucometer. Once serum glucose reached 250 mg/dL, mice were followed with daily measurements for 1 wk prior to use in experiments. Serum glucose levels in STZ mice averaged 461 mg/dL with a range of 372-520 mg/dL, while control mice serum glucose mean level was 120 mg/dL with a range of 94-135 mg/dL. Wounds were induced on the ventral surface of the mouse thigh using a 4 mm punch biopsy. Full-thickness skin was removed, exposing the underlying muscle.
For HBO treatment, mice were placed in an animal hyperbaric chamber (Reneau Corp.) and subjected to 100% oxygen at 2.4 atmospheres absolute (ATA) for 90 min (Davis Wound Healing Protocol). To measure continuous, real-time BM NO levels, NO microelectrodes was inserted into the femoral marrow cavity as previously described. An osteotomy was created on the patellar surface of the murine femur using a 25 G beveled needle, allowing the electrode to be lowered into the marrow space when the animal was placed in the hyperbaric chamber. In some mice, pretreatment with L-NAME (40 mg/kg i.p.) (Sigma-Aldrich) was given 2 h prior to exposure to HBO.
Mobilization of EPCs into circulation was studied using flow cytometry as previously described. Cells isolated from mice were incubated with various Abs (BD Biosciences). Isotype matched mouse immunoglobulins served as controls. One million viable cells were analyzed per sample using an LSR2 multicolor flow cytometer (BD Biosciences). Data was analyzed using FlowJo software (Treestar, Inc.).
Physiologically, increased levels of BM NO result in activation of MMP-9 and conversion of kit ligand to its soluble form, ultimately generating EPC release into circulation. To study the effects of the hyperoxia-induced rise in NO levels in the marrow cavity on mobilization of EPCs into circulation, peripheral blood from diabetic mice was analyzed for EPCs using flow cytometry. A determination of whether hyperoxia, induced by HBO, increases the number of circulating EPCs in the peripheral blood of diabetic mice was made. Specifically, peripheral blood of diabetic mice was examined 18 h after a single HBO treatment. After excluding dead DAPI^+labeled cells, candidate lymphocytes, identified by their typical appearance on forward and side scatter, were gated and CD45^+/CD3^+cell populations were excluded. […] Therefore, several marker combinations were used to quantitate circulating EPCs. […]
(In general: Flow cytometry measures light scatter and fluorescence of single cells or particles in a stream.)

“insulin: human insulin (NPH), 6 U/kg twice/d i.p.”: the EPC mobilization entry is “little effect; also recorded: does not increase”.
